From ChEMBL document CHEMBL6078646, “Target Ligand Separation and Identification of Isoforsythiaside as a Histone Lysine-Specific Demethylase 1 Covalent Inhibitor Against Breast Cancer Metastasis” (J Med Chem, 2024)
The source made the active and inactive calls. The rule behind the calls is not given here.

Tests used:
[1] = Toxicity in female Balb/c mouse assessed as effect on WBC level at 50 mg/kg, ip administered every other day for 7 times; format: organism-based; conditions: in vivo
[2] = Toxicity in female Balb/c mouse assessed as effect on RBC level at 50 mg/kg, ip administered every other day for 7 times; format: organism-based; conditions: in vivo
[3] = Toxicity in female Balb/c mouse assessed as effect on lymphocyte level at 50 mg/kg, ip administered every other day for 7 times; format: organism-based; conditions: in vivo
[4] = Toxicity in female Balb/c mouse assessed as effect on hemoglobin level at 50 mg/kg, ip administered every other day for 7 times; format: organism-based; conditions: in vivo
[5] = Toxicity in female Balb/c mouse assessed as effect on BUN level at 50 mg/kg, ip administered every other day for 7 times; format: organism-based; conditions: in vivo
[6] = Toxicity in female Balb/c mouse assessed as effect on creatinine level at 50 mg/kg, ip administered every other day for 7 times; format: organism-based; conditions: in vivo
[7] = Toxicity in female Balb/c mouse assessed as effect on ALT level at 50 mg/kg, ip administered every other day for 7 times; format: organism-based; conditions: in vivo
[8] = Toxicity in female Balb/c mouse assessed as effect on LDH level at 50 mg/kg, ip administered every other day for 7 times; format: organism-based; conditions: in vivo
[9] = Toxicity in female Balb/c mouse assessed as histological changes in liver at 50 mg/kg, ip administered every other day for 7 times by H and E staining based analysis; format: organism-based; conditions: in vivo
[10] = Toxicity in female Balb/c mouse assessed as histological changes in spleen at 50 mg/kg, ip administered every other day for 7 times by H and E staining based analysis; format: organism-based; conditions: in vivo
[11] = Toxicity in female Balb/c mouse assessed as histological changes in lung at 50 mg/kg, ip administered every other day for 7 times by H and E staining based analysis; format: organism-based; conditions: in vivo
[12] = Acute toxicity in female ICR mouse assessed as lethal dose administered intraperitoneally for 14 days; conditions: in vivo, route ip, time 14 day
MDA-MB-231 [13] = assay: Cytotoxicity against human MDA-MB-231 cells assessed as cell viability at 0 to 100 uM incubated for 24 hrs by MTT assay; format: functional; conditions: dose 0-100 µM
MDA-MB-231 [14] = assay: Inhibition of epithelial to mesenchymal transition in human MDA-MB-231 cells assessed as upregulation of E-cadherin protein expression by Western blotting analysis; format: functional, cell-based; conditions: dose 0-32 µM
MDA-MB-231 [15] = assay: Antimetastatic activity against human MDA-MB-231 cells expressing luciferase xenografted in female Balb/c nude mouse assessed as reduction in fluorescence intensity in lungs at 12 mg/kg, ip administered every 3 days and measured on day 15 by bioluminescence imaging analysis relative to control; format: functional; parameters: scale not given: the % may be the effect or the level left; conditions: time 15 day
MDA-MB-231 [16] = assay: Antimetastatic activity against human MDA-MB-231 cells expressing luciferase xenografted in female Balb/c nude mouse assessed as reduction in fluorescence intensity in lungs at 25 mg/kg, ip administered every 3 days and measured on day 15 by bioluminescence imaging analysis relative to control; format: functional; parameters: scale not given: the % may be the effect or the level left; conditions: time 15 day
MDA-MB-231 [17] = assay: Antimetastatic activity against human MDA-MB-231 cells expressing luciferase xenografted in female Balb/c nude mouse assessed as reduction in number of metastatic nodules in the lung at 12 mg/kg, ip administered every 3 days and measured after 30 days by H and E staining based histopathological analysis relative to control; format: functional; parameters: scale not given: the % may be the effect or the level left; conditions: time 30 day
[18] = target: T1, Lysine-specific histone demethylase 1A (Homo sapiens, UniProt O60341); assay: Binding affinity to LSD1 (unknown origin) assessed as protection of pronase-dependent degradation at 15 to 75 uM preincubated for 30 mins followed by pronase addition and measured after 30 mins by DARTS assay; conditions: dose 15-75 µM, time 60.0 min
[19] = target: T1, Lysine-specific histone demethylase 1A; assay: Binding affinity to LSD1 (unknown origin) assessed as thermal stability preincubated for 30 mins followed by incubation under 37 to 52 degreeC for 5 mins by CETSA; conditions: time 35.0 min
MDA-MB-231 [20] = assay: Effect on CD86 protein expression in LSD1 knockout human MDA-MB-231 cells at 16 uM by Western blot analysis; format: functional, cell-based
MDA-MB-231 [21] = assay: Effect on N-cadherin protein expression in LSD1 knockout human MDA-MB-231 cells at 16 uM by Western blot analysis; format: functional, cell-based
MDA-MB-231 [22] = assay: Inhibition of cell invasion in LSD1 knockout human MDA-MB-231 cells at 16 uM incubated for 24 hrs by phase contract microscopy based transwell assay; format: functional
MDA-MB-231 [23] = assay: Antimetastatic activity against LSD1 knockout human MDA-MB-231 cells xenografted in mouse model assessed as reduction in metastatic nodules in lung measured after 27 days by H and E staining based analysis; format: functional, cell-based; conditions: time 27.0 day
Homo sapiens [24] = species on record: Homo sapiens; assay: Inhibition of recombinant LSD1 Ser817A mutant (unknown origin)
Homo sapiens [25] = species on record: Homo sapiens; assay: Effect on LSD1/CoREST/HDAC1/HDAC2 (unknown origin) complex by coimmunoprecipitation analysis
MDA-MB-231 [26] = assay: Effect on LSD1 nuclear localization in human MDA-MB-231 cells transfected with LSD1 fluorescence antibody by fluorescence based analysis; format: functional, cell-based
MDA-MB-231 [27] = assay: Induction of LSD1 degradation in human MDA-MB-231 cells incubated for 12 hrs by Western blotting analysis; format: cell-based
[28] = target: T1, Lysine-specific histone demethylase 1A; assay: Stabilization of LSD1 in human MDA-MB-231 cells incubated for 24 hrs in presence of cycloheximide by Western blotting analysis; format: cell-based
MDA-MB-231 [29] = assay: Upregulation of RBMS3 protein expression in human MDA-MB-231 cells at 4 to 32 uM by Western blotting analysis; format: functional, cell-based; conditions: dose 4-32 µM
MDA-MB-231 [30] = assay: Inhibition of Twist1 production in human MDA-MB-231 cells by Western blotting analysis; format: functional, cell-based
MDA-MB-231 [31] = assay: Inhibition of MMP2 production in human MDA-MB-231 cells by Western blotting analysis; format: functional, cell-based; conditions: dose 0-32 µM
MDA-MB-231 [32] = assay: Induction of RBMS3 promoter transcriptional activity in human MDA-MB-231 cells by luciferase reporter gene assay; format: functional, cell-based
MDA-MB-231 [33] = assay: Antimetastatic activity against human MDA-MB-231 cells expressing luciferase xenografted in female Balb/c nude mouse assessed as reduction in lung metastasis at 12 to 50 mg/kg, ip administered every 3 days and measured on day 30 by bioluminescence imaging analysis; format: functional, organism-based; conditions: dose 12-50 mg/kg, time 30.0 day
[34] = Toxicity in female Balb/c nude mouse xenografted with human MDA-MB-231 cells expressing luciferase assessed as appearance of spleen lesions at 12 to 50 mg/kg, ip administered every 3 days and measured after 30 days by H and E staining based analysis; format: organism-based; conditions: in vivo, 720 h, dose 12-50 mg/kg, time 30 day
[35] = Toxicity in female Balb/c nude mouse xenografted with human MDA-MB-231 cells expressing luciferase assessed as appearance of kidney lesions at 12 to 50 mg/kg, ip administered every 3 days and measured after 30 days by H and E staining based analysis; format: organism-based; conditions: in vivo, 720 h, dose 12-50 mg/kg, time 30 day
[36] = target: T1, Lysine-specific histone demethylase 1A; assay: Non-competitive inhibition of LSD1 (unknown origin) in presence of FAD by Lineweaver-Burk plot analysis
[37] = target: T1, Lysine-specific histone demethylase 1A; assay: Binding affinity to recombinant LSD1 (unknown origin) at S817 residue by LC-MS/MS analysis
MDA-MB-231 [38] = assay: Induction of LSD1 degradation in human MDA-MB-231 cells at 4 to 32 uM in presence of MG132 by Western blot analysis; format: cell-based; conditions: dose 4-32 µM

## C[C@@H]1O[C@H](OC[C@H]2O[C@@H](OCCc3ccc(O)c(O)c3)[C@H](O)[C@@H](OC(=O)/C=C/c3ccc(O)c(O)c3)[C@@H]2O)[C@H](O)[C@H](O)[C@H]1O
[1]
  Activity: Non-toxic
[2]
  Activity: Non-toxic
[3]
  Activity: Non-toxic
[4]
  Activity: Non-toxic
[5]
  Activity: Non-toxic
[6]
  Activity: Non-toxic
[7]
  Activity: Non-toxic
[8]
  Activity: Non-toxic
[9]
  Activity: Non-toxic
[10]
  Activity: Non-toxic
[11]
  Activity: Non-toxic
[12]
  LD50 at 336 h: > 600 mg/kg
MDA-MB-231 [13]
  Activity: >90%
MDA-MB-231 [14]
  inhibition: Dose-dependent-effect
MDA-MB-231 [15]
  Activity: 32.9%
MDA-MB-231 [16]
  Activity: 46.4%
MDA-MB-231 [17]
  Activity: 7.1%
[18]
  Activity: Active
[19]
  Activity: Active
MDA-MB-231 [20]
  Activity: inactive
MDA-MB-231 [21]
  Activity: inactive
MDA-MB-231 [22]
  inhibition: Active; No Significant Difference With Lsd1 Knockout Control Group
MDA-MB-231 [23]
  Activity: Active; No Significant Difference Compared To Lsd1 Knockout Control Group
Homo sapiens [24]
  inhibition: inactive
Homo sapiens [25]
  Activity: inactive
MDA-MB-231 [26]
  Activity: inactive
MDA-MB-231 [27]
  Activity: Active
[28]
  Activity: Active
MDA-MB-231 [29]
  Activity: Active
MDA-MB-231 [30]
  inhibition: Dose-dependent-effect
MDA-MB-231 [31]
  inhibition: Dose-dependent-effect
MDA-MB-231 [32]
  Activity: Active
MDA-MB-231 [33]
  Activity: Active
[34]
  Activity: Non-toxic
[35]
  Activity: Non-toxic
[36]
  inhibition: Active
[37]
  Activity: Active
MDA-MB-231 [38]
  Activity: inactive
